Drawing on ChEMBL document CHEMBL1250514, “Fragment-based drug discovery applied to Hsp90. Discovery of two lead series with high ligand efficiency” (J Med Chem, 2010), this text covers Kd for 22 molecules.

The target of this test is Heat shock protein HSP90 (Homo sapiens, UniProt P07900+P08238).

Description: Binding affinity to human N-terminal ATPase domain of Hsp90 by isothermal titration calorimetry

Usually Kd stands for the equilibrium constant for the complex coming apart. `CC(C)(C)c1cc(C(=O)N2CCc3ccccc3C2)ccc1O` displayed an equilibrium dissociation constant (Kd) of 2.5 µM. Next, `COc1cc(-c2cc(Cl)nc(N)n2)c(Cl)cc1Cl`: 0.0063 µM. Next, `CC(C)(C)c1cc(C(=O)N2CCC(O)CC2)ccc1O`: 2.3 µM. Turning to `COc1ccc(-c2cc(Cl)nc(N)n2)c(Cl)c1`, the dissociation constant Kd is 0.028 µM. Next, `Nc1nc(Cl)cc(-c2ccc(Cl)cc2Cl)n1`: 0.012 µM; `COc1cccc(OC)c1-c1cc(Cl)nc(N)n1`: 0.068 µM; `CC(C)c1cc(C(=O)N2CCc3ccccc3C2)ccc1O`: 0.128 µM. Molecule `CC(C)(C)c1cc(C(=O)N2CCN(c3ccccn3)CC2)ccc1O` gave a Kd of 0.25 µM. `COc1ccc(Cl)c(-c2cc(Cl)nc(N)n2)c1` registered a Kd of 0.048 µM. `CCN(CC)C(=O)c1ccc(O)c(C(C)C)c1` returned a dissociation constant Kd of 7 µM.

With `CCN(CC)C(=O)c1cc(C(C)(C)C)ccc1O`, the Kd is 134 µM. The molecule `CC(C)c1cc(C(=O)N2CCOCC2)c(O)cc1O` yielded a dissociation constant (Kd) of 0.011 µM. In the case of `CC(C)c1cc(C(=O)N2Cc3ccccc3C2)ccc1O`, the Kd is 0.068 µM. With `CCc1cc(C(=O)N(CC)CC)ccc1O`, the Kd is 45 µM. In turn, `CCN(CC)C(=O)c1cc(C(C)C)ccc1O` returned a Kd of 51 µM.

As for `COc1cccc(Cl)c1-c1cc(Cl)nc(N)n1`, the dissociation constant Kd was found to be 0.036 µM. For `CC(C)c1cc(C(=O)N2CCOCC2)ccc1O` the value was 0.4 µM; for `Nc1nc(Cl)cc(-c2ccccc2Cl)n1`, 0.083 µM; for `CC(=O)N1CCN(C(=O)c2ccc(O)c(C(C)(C)C)c2)CC1`, 2.5 µM. In turn, `CCN(CC)C(=O)c1ccc(O)c(C(C)(C)C)c1` gave an equilibrium dissociation constant (Kd) of 8.6 µM. As for `Nc1nc(Cl)cc(-c2ccccc2)n1`, the Kd was determined as 2 µM. In turn, `CCN(CC)C(=O)c1ccc(O)c(Cl)c1` gave a Kd of 1130 µM.
